Results: publication PMC11648915, “Identification and development of TRPM4 antagonists to counteract neuronal excitotoxicity” (iScience, 2024)
Read-outs that look alike come from different tables or passages of the source.

How the values were obtained:
[1] = target: T1, human TRPM5 (Homo sapiens, UniProt Q9NZQ8); assay: QPatch automated patch clamp on TRPM5-expressing HEK293 cells; assay type: cell-based; conditions: hsTRPM5-expressing HEK293 cells
T1 sequence (Q9NZQ8 1-1165): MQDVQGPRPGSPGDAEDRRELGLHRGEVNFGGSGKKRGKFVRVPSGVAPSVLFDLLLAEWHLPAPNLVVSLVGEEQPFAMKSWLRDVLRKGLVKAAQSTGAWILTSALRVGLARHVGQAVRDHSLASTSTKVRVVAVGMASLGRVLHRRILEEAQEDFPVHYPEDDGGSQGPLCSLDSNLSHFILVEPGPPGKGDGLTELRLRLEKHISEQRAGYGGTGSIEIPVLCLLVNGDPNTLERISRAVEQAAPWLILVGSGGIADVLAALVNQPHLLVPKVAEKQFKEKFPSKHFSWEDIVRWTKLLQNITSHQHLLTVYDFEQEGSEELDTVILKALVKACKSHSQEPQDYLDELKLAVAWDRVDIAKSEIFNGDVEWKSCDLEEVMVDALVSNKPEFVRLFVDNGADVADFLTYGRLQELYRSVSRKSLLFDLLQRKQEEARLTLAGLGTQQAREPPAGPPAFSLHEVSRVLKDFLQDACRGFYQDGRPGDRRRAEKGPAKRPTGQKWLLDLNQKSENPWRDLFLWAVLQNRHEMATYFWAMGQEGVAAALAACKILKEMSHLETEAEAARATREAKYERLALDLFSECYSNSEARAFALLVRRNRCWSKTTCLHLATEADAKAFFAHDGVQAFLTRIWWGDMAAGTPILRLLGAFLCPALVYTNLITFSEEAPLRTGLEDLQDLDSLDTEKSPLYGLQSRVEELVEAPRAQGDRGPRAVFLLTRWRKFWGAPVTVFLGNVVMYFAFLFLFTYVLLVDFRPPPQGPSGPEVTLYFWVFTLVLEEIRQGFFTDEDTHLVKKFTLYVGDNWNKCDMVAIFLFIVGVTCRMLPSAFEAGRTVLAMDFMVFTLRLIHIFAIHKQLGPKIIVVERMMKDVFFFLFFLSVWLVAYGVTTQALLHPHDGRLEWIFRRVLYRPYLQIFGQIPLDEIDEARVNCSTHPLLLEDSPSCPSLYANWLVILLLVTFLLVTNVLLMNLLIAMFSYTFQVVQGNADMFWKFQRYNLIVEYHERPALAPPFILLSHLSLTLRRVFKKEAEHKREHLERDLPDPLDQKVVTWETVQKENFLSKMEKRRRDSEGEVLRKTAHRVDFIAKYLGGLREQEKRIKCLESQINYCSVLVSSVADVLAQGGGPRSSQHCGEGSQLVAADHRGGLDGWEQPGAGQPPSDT
Excerpt: The counter screening phase involved the inclusion of hsTRPM5-expressing HEK293 cells, as closest homologue, and the parental HEK293 cell line to evaluate selectivity. […] Based on categorization of biological activity, mass spectrometry quality control, and aspects of medicinal chemistry, we prioritized 144 selective hsTRPM4 compounds. These compounds were then subjected to automated patch clamp electrophysiology measurements (QPatch[58]) to evaluate their activity profiles and IC50 values (Figures 1A, S1, and S2).
QPatchHTX, an automated electrophysiology platform, was used in single hole mode. One day before use human TRPM4- or TRPM5-expressing HEK293 cells were seeded in a T75 flask at a density of 53k cells per cm^2 and at passages < 23. For QPatch assays, cells were harvested and re-suspended in SFM (Gibco, 11686029). The extracellular solution was (in mM): CaCl2 (7), MgCl2 (2), KCl (5), HEPES (10), NaCl (70), NMDG (70); pH 7.4 with NaOH. The intracellular solution was (in mM): HEPES (10), NMDG (100), NaCl (50), EGTA (20), MgCl2 (1), CaCl2 (21); pH 7.2 with HCl. After break-in, channels were consistently open and current through the channels could be observed at a voltage ramp from –100 mV to +100 mV over 500 ms. This protocol was repeated every 7 seconds. After saline and vehicle application, the channel was desensitized and residual current was used as baseline. FFA was used as reference compound and applied cumulatively with each concentration incubating at a minimum of 20 voltage protocol runs (140 seconds) with the current after addition of FFA being calculated as full block. […] Each compound was measured at least 3 time independently.

[2] = target: T2, CYP3A4 (Homo sapiens, UniProt P08684); assay: CYP inhibition assay 3A4; assay type: in vitro ADME
T2 construct: purchased BD Gentest
T2 sequence (P08684 whole entry): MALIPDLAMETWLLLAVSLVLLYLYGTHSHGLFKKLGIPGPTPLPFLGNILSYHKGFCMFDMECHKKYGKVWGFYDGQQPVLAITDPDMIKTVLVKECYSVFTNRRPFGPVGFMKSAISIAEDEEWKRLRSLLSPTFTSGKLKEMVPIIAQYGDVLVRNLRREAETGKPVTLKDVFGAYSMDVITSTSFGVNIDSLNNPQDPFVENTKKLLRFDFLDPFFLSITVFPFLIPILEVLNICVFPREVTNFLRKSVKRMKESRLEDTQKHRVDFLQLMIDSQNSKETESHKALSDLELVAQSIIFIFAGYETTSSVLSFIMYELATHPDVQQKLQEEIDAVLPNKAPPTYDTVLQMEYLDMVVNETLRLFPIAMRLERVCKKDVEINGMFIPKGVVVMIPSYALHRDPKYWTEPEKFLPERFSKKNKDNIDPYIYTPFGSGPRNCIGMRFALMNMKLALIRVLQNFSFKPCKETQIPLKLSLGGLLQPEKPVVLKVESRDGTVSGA
Method: (§1) The half-maximal inhibitory concentration (IC50) for cytochrome P450 (CYP) enzymes was determined using an in vitro enzyme inhibition assay. Recombinant CYP enzymes or human liver microsomes from BD Gentest, in 0.1 M phosphate buffer pH 7.4, containing native CYP enzymes were incubated with the test compound at various concentrations (1, 3, 10 and 30 μM) and containing 0.5% DMSO and 0.1% BSA final concentrations. 1 mM of NADPH cofactor was added and the reaction was started by a rapid increase of temperature until 37°C.

[3] = target: T3, CYP2D6 (Homo sapiens, UniProt P10635); assay: CYP inhibition assay 2D6; assay type: in vitro ADME
T3 construct: purchased BD Gentest
T3 sequence (P10635 whole entry): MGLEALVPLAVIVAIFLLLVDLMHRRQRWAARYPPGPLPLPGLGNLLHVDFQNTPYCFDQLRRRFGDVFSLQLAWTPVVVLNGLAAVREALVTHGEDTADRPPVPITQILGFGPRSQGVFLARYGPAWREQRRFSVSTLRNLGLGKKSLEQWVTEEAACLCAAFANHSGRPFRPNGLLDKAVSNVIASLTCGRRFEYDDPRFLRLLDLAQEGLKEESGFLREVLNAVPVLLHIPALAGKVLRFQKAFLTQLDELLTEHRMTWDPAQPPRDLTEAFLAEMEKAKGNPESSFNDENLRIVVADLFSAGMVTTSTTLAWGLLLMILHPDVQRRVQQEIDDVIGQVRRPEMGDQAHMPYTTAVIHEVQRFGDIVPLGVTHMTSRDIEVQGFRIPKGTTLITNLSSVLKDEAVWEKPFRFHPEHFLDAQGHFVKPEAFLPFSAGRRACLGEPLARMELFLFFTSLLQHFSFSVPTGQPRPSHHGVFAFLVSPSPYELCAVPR
Method: as §1

[4] = TDI, read-out: Cyp IC50 TDI 3A4

Structure (SMILES)	IC50 [1]	IC50 [2, 4]	IC50 ([2]; read-out: Cyp IC50 3A4)	IC50 [3]	IC50 ([2]; human, pH 7.4)	IC50 ([3]; human, pH 7.4)
Fc1cccc(-c2ccccc2NCc2nc3ccccc3o2)c1 [CMP343]	> 10 µM	> 50 µM	> 50 µM	> 50 µM	–	–
Fc1ccccc1-c1ccccc1NCc1nc2ccccc2o1 [CMP353]	> 10 µM	–	> 29.6 µM	> 50 µM	–	–
c1csc(-c2ccccc2NCc2nc3ccccc3o2)c1 [CMP355]	> 10 µM	> 50 µM	> 50 µM	> 50 µM	–	–
Cc1ccsc1-c1ccccc1NCc1nc2ccccc2o1 [CMP369]	> 10 µM	–	–	–	> 50 µM	> 50 µM
Nc1ccccc1-c1ccccc1NCc1nc2ccccc2o1 [CMP457]	> 30 µM	–	–	> 50 µM	–	–
